Test results reported in patent US20240246964A1 (Arbutus Biopharma Corporation, priority 2021, published 2024).

How the values were obtained:
human PD-L1 = human PD-L1 (Homo sapiens (Human), UniProt Q9NZQ7); experiment: T cell activation luciferase reporter cell culture system (T Cell Activation Assay); type: cell-based; conditions: luciferase reporter assay; PD-L1 aAPC/CHO-K1 cells with PD-1 effector Jurkat T cells
[1] = target: PD-L1 His protein / PD-1 Fc protein (Homo sapiens (Human), UniProt Q9NZQ7); experiment: HTRF Assay (PD-1/PD-L1 interaction); type: binding; conditions: PD-L1 His 6 nM, PD-1 Fc 6 nM
PD-L1 His protein / PD-1 Fc protein, sequence (Q9NZQ7 19-238): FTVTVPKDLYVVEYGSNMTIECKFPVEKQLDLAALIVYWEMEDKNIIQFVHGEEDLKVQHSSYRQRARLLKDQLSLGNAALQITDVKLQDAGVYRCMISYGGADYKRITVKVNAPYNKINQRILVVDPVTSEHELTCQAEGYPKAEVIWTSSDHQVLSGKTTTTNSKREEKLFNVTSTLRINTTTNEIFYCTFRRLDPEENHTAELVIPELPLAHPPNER

human PD-L1, sequence (Q9NZQ7 19-290): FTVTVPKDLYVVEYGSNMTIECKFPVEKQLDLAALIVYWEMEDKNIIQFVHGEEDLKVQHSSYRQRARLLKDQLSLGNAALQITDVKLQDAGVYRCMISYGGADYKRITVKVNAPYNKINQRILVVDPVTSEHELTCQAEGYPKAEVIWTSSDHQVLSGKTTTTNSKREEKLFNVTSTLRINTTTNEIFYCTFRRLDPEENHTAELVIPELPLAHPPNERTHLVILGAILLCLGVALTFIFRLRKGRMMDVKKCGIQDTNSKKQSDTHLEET

| SMILES | EC50 (human PD-L1) | IC50 [1] |
| --- | --- | --- |
| COc1cc(-c2nccc(-c3cccc(-c4ccc(CNC5CCOCC5)c(OC)n4)c3Cl)c2Cl)cnc1CNC1CCOCC1 [Compound 431, N-((6-(2-Chloro-3-(3-chloro-5′-methoxy-6′-(((tetrahydro-2H-pyran-4-yl)amino)methyl)-[2,3′-bipyridin]-4-yl)phenyl)-2-methoxypyridin-3-yl)methyl)tetrahydro-2H-pyran-4-amine] | 106 nM | 2.03 nM |
| CNCc1cn(C)c2cc(-c3nccc(-c4cccc(-c5ccc(CNC[C@@H]6CCC(=O)N6)c(OC)n5)c4Cl)c3Cl)ccc12 [Compound 31, (S)-5-((((6-(2-chloro-3-(3-chloro-2-(1-methyl-3-((methylamino)methyl)-1H-indol-6-yl)pyridin-4-yl)phenyl)-2-methoxypyridin-3-yl)methyl)amino)methyl)pyrrolidin-2-one] | 134 nM | 0.3 nM |
| COc1cc(-c2nccc(-c3cccc(NC(=O)c4ccc(CNCCO)cn4)c3Cl)c2Cl)ccc1CNCCO [Example 676, N-(2-Chloro-3-(3-chloro-2-(4-(((2-hydroxyethyl)amino)methyl)-3-methoxyphenyl)pyridin-4-yl)phenyl)-5-(((2-hydroxyethyl)amino)methyl)picolinamide] | 37.3 nM | 0.1 nM |
| COc1cc(-c2nccc(-c3cccc(-c4ccc(CNC5CCN(C(C)=O)CC5)c(OC)n4)c3Cl)c2Cl)ccc1CN(C)C1CCOCC1 [Example 427, 1-(4-(((6-(2-chloro-3-(3-chloro-2-(3-methoxy-4-((methyl(tetrahydro-2H-pyran-4-yl)amino)methyl)phenyl)pyridin-4-yl)phenyl)-2-methoxypyridin-3-yl)methyl)amino)piperidin-1-yl)ethan-1-one] | 25 nM | 8.8 nM |
| COc1cc(-c2ncnc(-c3cccc(-c4ccc(CNC5CCN(C(C)=O)CC5)c(OC)n4)c3Cl)c2C)ccc1CNC1CCN(C(C)=O)CC1 [Example 522, 1-(4-(((6-(3-(6-(4-(((1-Acetylpiperidin-4-yl)amino)methyl)-3-methoxyphenyl)-5-methylpyrimidin-4-yl)-2-chlorophenyl)-2-methoxypyridin-3-yl)methyl)amino)piperidin-1-yl)ethan-1-one] | ≥ 10000 nM | 2.05 nM |
| COc1cc(-c2nccc(-c3cccc(-c4cc5c(cn4)C(=O)N(CCNC[C@@H]4CCC(=O)N4)C5)c3Cl)c2Cl)ccc1CNC[C@@H]1CCC(=O)N1 [Example 290, 6-(2-Chloro-3-(3-chloro-2-(3-methoxy-4-(((((S)-5-oxopyrrolidin-2-yl)methyl)amino)methyl)phenyl)pyridin-4-yl)phenyl)-2-(2-((((S)-5-oxopyrrolidin-2-yl)methyl)amino)ethyl)-1,2-dihydro-3H-pyrrolo[3,4-c]pyridin-3-one] | 551 nM | 3.03 nM |
| COc1cc(-c2nccc(-c3cccc(-c4ccc(CNC5CCS(=O)(=O)CC5)c(OC)n4)c3Cl)c2Cl)ccc1CNC1CCS(=O)(=O)CC1 [Example 299, 4-(((6-(2-Chloro-3-(3-chloro-2-(4-(((1,1-dioxidotetrahydro-2H-thiopyran-4-yl)amino)methyl)-3-methoxyphenyl)pyridin-4-yl)phenyl)-2-methoxypyridin-3-yl)methyl)amino)tetrahydro-2H-thiopyran 1,1-dioxide] | 22.6 nM | 0.79 nM |
| COc1cc(-c2nccc(-c3cccc(-c4ccc(CN(C)CC5CN(C(C)=O)C5)c(OC)n4)c3Cl)c2Cl)ccc1CN(C)CC1CN(C(C)=O)C1 [Example 499, 1-(3-((((6-(3-(2-(4-((((1-Acetylazetidin-3-yl)methyl)(methyl)amino)methyl)-3-methoxyphenyl)-3-chloropyridin-4-yl)-2-chlorophenyl)-2-methoxypyridin-3-yl)methyl)(methyl)amino)methyl)azetidin-1-yl)ethan-1-one] | 88.5 nM | 2.07 nM |
| COc1cc(-c2nccc(-c3cccc(-c4ccc(CN5CCC(NC(C)=O)CC5)c(OC)n4)c3Cl)c2Cl)ccc1CN1CCC(NC(C)=O)CC1 [Example 322, N-(1-((6-(3-(2-(4-((4-Acetamidopiperidin-1-yl)methyl)-3-methoxyphenyl)-3-chloropyridin-4-yl)-2-chlorophenyl)-2-methoxypyridin-3-yl)methyl)piperidin-4-yl)acetamide] | 72.9 nM | 23.1 nM |
| COc1nc(-c2ccnc(-c3cccc(NC(=O)c4ccc(CNCCO)cn4)c3C)c2Cl)ccc1CNC[C@@H]1CCC(=O)N1 [Example 771, (S)—N-(3-(3′-chloro-6-methoxy-5-((((5-oxopyrrolidin-2-yl)methyl)amino)methyl)-[2,4′-bipyridin]-2′-yl)-2-methylphenyl)-5-(((2-hydroxyethyl)amino)methyl)picolinamide] | 28.7 nM | 0.03 nM |
| COc1cc(-c2ncnc(-c3cccc(NC(=O)c4cn(C)c(=O)n(C)c4=O)c3Cl)c2Cl)ccc1CNC[C@@H]1CCC(=O)N1 [Compound 708, (S)—N-(2-Chloro-3-(5-chloro-6-(3-methoxy-4-((((5-oxopyrrolidin-2-yl)methyl)amino)methyl)phenyl)pyrimidin-4-yl)phenyl)-1,3-dimethyl-2,4-dioxo-1,2,3,4-tetrahydropyrimidine-5-carboxamide] | 1320 nM | 0.29 nM |
| COCC1CCN(Cc2ccc(-c3nccc(-c4cccc(-c5ccc(CNC6CCN(C(C)=O)CC6)c(OC)n5)c4Cl)c3Cl)cc2OC)CC1 [Example 509, 1-(4-(((6-(2-Chloro-3-(3-chloro-2-(3-methoxy-4-((4-(methoxymethyl)piperidin-1-yl)methyl)phenyl)pyridin-4-yl)phenyl)-2-methoxypyridin-3-yl)methyl)amino)piperidin-1-yl)ethan-1-one] | 100 nM | 9.77 nM |
| COc1nc(-c2cccc(-c3ccnc(-c4ccc5c(CNC[C@@H]6CCC(=O)N6)nn(C)c5c4)c3Cl)c2Cl)ccc1CNC[C@@H]1CCC(=O)N1 [Compound 183, (S)-5-((((6-(2-chloro-3-(3-chloro-2-(1-methyl-3-(((((S)-5-oxopyrrolidin-2-yl)methyl)amino)methyl)-1H-indazol-6-yl)pyridine-4-yl)phenyl)-2-methoxypyridin-3-yl)methyl)amino)methyl)pyridine1335ne-2-one] | 44.9 nM | 2.95 nM |
| COc1nc(-c2cccc(-c3ccnc(-c4ccc5c(c4)CNC5)c3Cl)c2Cl)ccc1CNC[C@H](C)O [Compound 161, (S)-1-(((6-(2-chloro-3-(3-chloro-2-(isoindolin-5-yl)pyridine-4-yl)phenyl)-2-methoxypyridin-3-yl)methyl)amino)propan-2-ol] | 387 nM | 0.73 nM |
| COc1cc(-c2ncnc(-c3cccc(-c4ccc(CNC[C@@H]5CCC(=O)N5)c(OC)n4)c3Cl)c2Cl)ccc1CNC[C@@H]1CCC(=O)N1 [Example 543, (S)-5-((((6-(2-chloro-3-(5-chloro-6-(3-methoxy-4-(((((S)-5-oxopyrrolidin-2-yl)methyl)amino)methyl)phenyl)pyrimidin-4-yl)phenyl)-2-methoxypyridin-3-yl)methyl)amino)methyl)pyrrolidin-2-one] | 17.5 nM | 0.29 nM |
| COc1nc(-c2cccc(-c3ccnc(-c4ccc5nc([C@H]6N[C@@H]7CC[C@H]6C7)[nH]c5c4)c3Cl)c2Cl)ccc1CNC[C@@H]1CCC(=O)N1 [Compound 152, (S)-5-((((6-(3-(2-(2-((1R,3S,4S)-2-azabicyclo[2.2.1]heptan-3-yl)-1H-benzo[d]imidazol-6-yl)-3-chloropyridin-4-yl)-2-chlorophenyl)-2-methoxypyridin-3-yl)methyl)amino)methyl)pyrrolidin-2-one] | ≥ 10000 nM | 2.57 nM |
| COc1cc(-c2nccc(-c3cccc(-c4ccc(CN(C)C[C@H]5CNC(=O)C5)c(OC)n4)c3Cl)c2Cl)ccc1CN(C)C[C@H]1CNC(=O)C1 [Example 473, (R)-4-((((6-(2-Chloro-3-(3-chloro-2-(3-methoxy-4-((methyl(((R)-5-oxopyrrolidin-3-yl)methyl)amino)methyl)phenyl)pyridin-4-yl)phenyl)-2-methoxypyridin-3-yl)methyl)(methyl)amino)methyl)pyrrolidin-2-one] | ≥ 10000 nM | 16.9 nM |
| COc1cc(-c2nccc(-c3cccc(NC(=O)c4ccc(CNCCO)cn4)c3Cl)c2Cl)ccc1CNC[C@@H]1CCC(=O)N1 [Example 755, (S)—N-(2-Chloro-3-(3-chloro-2-(3-methoxy-4-((((5-oxopyrrolidin-2-yl)methyl)amino)methyl)phenyl)pyridin-4-yl)phenyl)-5-(((2-hydroxyethyl)amino)methyl)picolinamide] | 4.48 nM | 0.12 nM |
| COc1cc(CNC[C@H](C)O)cc(-c2nccc(-c3cccc(-c4ccc(CNC[C@H](C)O)c(OC)n4)c3Cl)c2Cl)c1 [Compound 157, (S)-1-(((6-(2-chloro-3-(3-chloro-2-(3-((((S)-2-hydroxypropyl)amino)methyl)-5-methoxyphenyl)pyridin-4-yl)phenyl)-2-methoxypyridin-3-yl)methyl)amino)propan-2-ol] | ≥ 10000 nM | 2.45 nM |
| COc1cc(-c2nccc(-c3cccc(NC(=O)c4ccc(CNCCO)cn4)c3Cl)c2Cl)ccc1CN1CC2(C1)CN(C(C)=O)C2 [Example 757, N-(3-(2-(4-((6-Acetyl-2,6-diazaspiro[3.3]heptan-2-yl)methyl)-3-methoxyphenyl)-3-chloropyridin-4-yl)-2-chlorophenyl)-5-(((2-hydroxyethyl)amino)methyl)picolinamide] | 86.5 nM | 0.47 nM |
| COc1nc(-c2cccc(-c3ccnc(-c4cc(OC)c5nc(CNC[C@@H](C)O)nn5c4)c3Cl)c2Cl)ccc1CNC1CCN(C(C)=O)CC1 [Example 638, (R)-1-(4-(((6-(2-Chloro-3-(3-chloro-2-(2-(((2-hydroxypropyl)amino)methyl)-8-methoxy-[1,2,4]triazolo[1,5-a]pyridin-6-yl)pyridin-4-yl)phenyl)-2-methoxypyridin-3-yl)methyl)amino)piperidin-1-yl)ethan-1-one] | 94.9 nM | 0.2 nM |
